One series has as its system HEK293 cells. Nature of the series: Cell viability assay (MTT). The format is cell-based, human. To be noted: 24 h; for Viability of cells (in words): after 5 min green light irradiation. Here is the method:
Figure 2 Competitive ABPP with photo‐cleavable inhibitor 5 in HEK293 cells. A) Schematic overview of a competitive ABPP experiment. A proteome is pre‐incubated with a competitor, followed by a labeling reaction with an activity‐based probe (ABP). In the case of a photocaged inhibitor, the active compound can be released via irradiation. Target proteins of the competitor cannot be bound by the ABP, resulting in an absence of the respective protein band in‐gel analysis. Created in BioRender. Najdzion, M. (2025) https://BioRender.com/84zn8cb B) Gel‐based competitive ABPP experiment in HEK293 cell lysates with the broadband serine hydrolase ABP ≡FP or the DPP8/9‐directed ABP 2 and the photocaged inhibitor 5, at the indicated concentrations, after or without prior irradiation with green light for 5 min. The corresponding pre‐incubation time for 5 was 30 min. C) Corresponding in situ competitive ABPP experiment in HEK293 cell culture, again with 10 µM 2 for 1 h. Labeling was competed by pre‐incubation with 20 µM 5 for 1 h, followed by an activation of the photocaged inhibitor by irradiation for 5 min with a green LED lamp, if applicable. D) Green light treatment has no cytotoxic effect. HEK293 cells were irradiated with a green LED lamp in the presence of 0.5% DMSO for 5 min (‘light’), and cell viability was measured after 24 h. […] Data was normalized to the non‐irradiated control (‘dark’). E) Green light treatment leads to the release of the active DPP8/9 inhibitor. HEK293 cells were incubated with compound 1 or 5 for 24 h. For both compounds, cell viability was measured under ‘dark’ (not irradiated) and ‘light’ (irradiated for 5 min with a green LED lamp after the addition of the inhibitor) conditions. […] Data was normalized to the non‐irradiated DMSO control.
In order to validate target engagement in living cells and potential cytotoxic effects of green light treatment, we determined cell viability of HEK293 cells after 24 h inhibitor treatment with 5 with or without 5 min green light irradiation, as the application of DPP8/9 inhibitors at high concentrations and thus elimination of any residual DPP8/9 activity results in cytotoxicity.^[ [38], [39] ^– [40] ^] As a control, effects of green light treatment on cell viability were examined in the absence of any inhibitor after 24 h, again with or without 5 min irradiation (Figure 2D). […] Of note, no additional effect of the photocage on cell viability was observed. In summary, our cell viability studies confirm target engagement in live cells exclusively after photorelease, thereby again confirming the suitability of the photocaged DPP8/9 inhibitor 5 as a cell biological tool compound.
To investigate the cytotoxicity of compounds, 2 × 10^4 HEK293 cells were cultured in DMEM (+/+) on 96‐well flat‐bottom cell culture plates (Sarstedt, Germany) as described above. After 24 h, cells were treated with indicated concentrations of compounds (final DMSO concentration: 0.5%) and, if applicable, irradiated with a green LED lamp (λ = 520−530 nm; Eurolite, Germany) for 5 min. Control cells were treated with DMSO. Cell viability was measured 24 h after compound treatment. To this end, 25 µL Thiazolyl Blue Tetrazolium Bromide (MTT) solution (5 mg mL^−1 MTT (Sigma Aldrich, USA) in PBS (Gibco, USA)) was added to each well directly into the medium. After 3 h of incubation at 37 °C, the medium was removed and formazan crystals were dissolved by adding 150 µL DMSO (1 h, 37 °C, gentle shaking), followed by an absorbance measurement at 570 and 630 nm as a reference using a Tecan Spark 10 M multimode microplate reader (Tecan Group Ltd., Switzerland). Each experiment was performed with five replicates. Relative cell viability was expressed as a percentage relative to the DMSO‐treated control cells.

In the next series the target is DPP9 (Homo sapiens, UniProt Q86TI2). Nature of the series: In situ competitive ABPP in HEK293 cell culture, 100 kDa band. The format is cell-based. More on the design: endogenous in cells; host or cells: HEK293 (Cytion, Germany, 300192). As to conditions: pre-incubation 1 h with 20 µM or 10 µM (method), 10 µM 2 for 1 h, light 5 min. On the procedure: Figure 2 Competitive ABPP with photo‐cleavable inhibitor 5 in HEK293 cells. A) Schematic overview of a competitive ABPP experiment. A proteome is pre‐incubated with a competitor, followed by a labeling reaction with an activity‐based probe (ABP). In the case of a photocaged inhibitor, the active compound can be released via irradiation. Target proteins of the competitor cannot be bound by the ABP, resulting in an absence of the respective protein band in‐gel analysis. Created in BioRender. Najdzion, M. (2025) https://BioRender.com/84zn8cb B) Gel‐based competitive ABPP experiment in HEK293 cell lysates with the broadband serine hydrolase ABP ≡FP or the DPP8/9‐directed ABP 2 and the photocaged inhibitor 5, at the indicated concentrations, after or without prior irradiation with green light for 5 min. The corresponding pre‐incubation time for 5 was 30 min. C) Corresponding in situ competitive ABPP experiment in HEK293 cell culture, again with 10 µM 2 for 1 h. […] HEK293 cells were irradiated with a green LED lamp in the presence of 0.5% DMSO for 5 min (‘light’), and cell viability was measured after 24 h. […] For both compounds, cell viability was measured under ‘dark’ (not irradiated) and ‘light’ (irradiated for 5 min with a green LED lamp after the addition of the inhibitor) conditions. […]
DPP9, sequence (Q86TI2 whole entry): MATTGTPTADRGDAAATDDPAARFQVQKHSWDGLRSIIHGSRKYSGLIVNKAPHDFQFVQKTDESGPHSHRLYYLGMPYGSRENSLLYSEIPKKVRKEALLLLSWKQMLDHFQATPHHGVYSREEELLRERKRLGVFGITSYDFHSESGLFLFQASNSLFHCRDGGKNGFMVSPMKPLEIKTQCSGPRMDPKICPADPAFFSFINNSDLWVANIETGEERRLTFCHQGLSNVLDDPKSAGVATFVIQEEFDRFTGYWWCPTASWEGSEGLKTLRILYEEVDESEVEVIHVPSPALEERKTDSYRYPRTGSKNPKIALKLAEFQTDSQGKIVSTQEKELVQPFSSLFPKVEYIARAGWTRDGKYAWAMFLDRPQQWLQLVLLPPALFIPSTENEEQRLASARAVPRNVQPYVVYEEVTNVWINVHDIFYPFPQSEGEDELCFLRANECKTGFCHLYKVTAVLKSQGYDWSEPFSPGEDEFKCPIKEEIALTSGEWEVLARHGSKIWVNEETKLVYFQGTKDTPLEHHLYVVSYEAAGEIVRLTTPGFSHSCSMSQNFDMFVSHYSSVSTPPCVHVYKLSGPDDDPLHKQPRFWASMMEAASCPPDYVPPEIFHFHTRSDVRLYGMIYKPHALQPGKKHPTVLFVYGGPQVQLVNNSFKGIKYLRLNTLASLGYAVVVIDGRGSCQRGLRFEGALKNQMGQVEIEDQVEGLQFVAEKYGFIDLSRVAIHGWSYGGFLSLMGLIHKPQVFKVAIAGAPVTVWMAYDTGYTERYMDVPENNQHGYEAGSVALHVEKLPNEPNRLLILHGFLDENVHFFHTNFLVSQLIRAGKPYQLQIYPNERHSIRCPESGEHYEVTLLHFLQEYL

With `CCCCCc1ccc(SCCP(=O)(OCC)N2CCC[C@H](NC(=O)OCC3=C4C(C)=CC(C)=[N+]4[B-](C)(C)n4c(C)cc(C)c43)C2=O)cc1` (stereo partly shown) [Compound 5], the “Viability of cells (in words)” value in the series on HEK293 cells (25 µM) and in the series on HEK293 cells (50 µM) was “significantly reduced” throughout. Moreover, the “Cytotoxicity (in words)” value with HEK293 cells (dark, up to highest concentrations used) is “no cytotoxicity”. Moreover, the “Competition of DPP9 labeling in live cells (in words)” value at DPP9 is listed as “completely inhibited”.

Source of the values: paper PMC12498190, “A Photocaged N‐Phosphonopiperidinone as a Selective Photo‐Cleavable DPP8/9 Inhibitor” (Chembiochem, 2025).
